Laboratory results taken from paper PMC9820303, “^αN-Acetyl β-Endorphin Is an Endogenous Ligand of σ1Rs That Regulates Mu-Opioid Receptor Signaling by Exchanging G Proteins for σ2Rs in σ1R Oligomers” (International Journal of Molecular Sciences, 2022).

How the values were obtained:
σ1R oligomers = target: T1, σ1R oligomers (Mus musculus, UniProt O55242); test: In vitro made σ1R oligomers on agarose-σ1R; assay type: biochemical, murine; settings: agarose-σ1R plus free σ1Rs (100 nM), Tris-HCl pH 7.4, 0.2% CHAPS, 2.5 mM CaCl2
T1 construct: The coding region of the full-length murine σ1R (AF004927); GST (N); made in house; host or cells: E. coli BL21 (KRX)
Description: In ex vivo fishing assays performed on mouse solubilized brain membranes enriched in synaptosomes (SBM), our bait, agarose-covalently attached σ1Rs (agarose-σ1R), captured diverse prey, such as trimeric G proteins, σ1Rs and σ2Rs (Figure 4C). Because σ1Rs form oligomers in vivo that can be altered by ligands, we added in vitro free σ1Rs to agarose-σ1Rs. After removing the unbound σ1Rs, the extent of the σ1R oligomerization that remained around the agarose-σ1R was determined by SDS-PAGE followed by Western blot analysis (Figure S3).
Figure S4. In vitro made σ1R oligomers. A) Effect of σ1R ligands on the formation of σ1R oligomers.
Agarose (Θ)-attached σ1Rs were incubated for 30 min in the presence of recombinant free σ1Rs (100 nM) in 300 μL of 50 mM Tris-HCl (pH 7.4), 0.2% CHAPS, and 2.5 mM CaCl2. After removing unbound σ1R proteins, the assays were performed in the absence (control) or presence of increasing concentrations of σ1R ligands. The agarose-bound σ1R protein complexes were obtained by centrifugation, washed three times, solubilized in 2x Laemmli buffer containing β-mercaptoethanol, resolved by SDS-PAGE, and analyzed by Western blotting (for more details see Methods). […] The G proteins that remained bound to Θ-σ1R oligomers were determined as in Figure 4C. The arrows indicate an estimated afﬁnity of the ligand for σ1Rs, as determined through in vitro assays. […]

[1] = test system: pMCAO in CD1 mice (wild-type and σ1R−/−); test: Permanent unilateral middle cerebral artery occlusion (pMCAO), infarct size by TTC staining; assay type: in vivo, mouse
Description: (§1) Figure 1 ^αN-acetyl β-End 1–31 reduced ischemic brain damage and diminished seizures induced by NMDAR overactivation. Implication of σ1Rs. (A) ^αN-acetyl β-End 1–31 administration diminished ischemic brain damage in wild-type but not σ1R^−/− mice. Upper panel: representative 2,3,5-triphenyltetrazolium chloride (TTC)-stained brain section images obtained from saline- and drug-treated mice (3 nmol, 1 h after surgery) 48 h after pMCAO. White indicates infarction; red staining indicates normal tissue. Lower panel: the bar graphs quantitatively compare the infarct volume based on TTC staining from wild-type mice treated with saline, β-End 1–31 and the σ1R agonist PRE084 (white bars). The reducing effect of ^αN-acetyl β-End 1–31 was counteracted by β-End 1–31 and PRE084 (gray bars). In σ1R^−/− mice, the positive effect of ^αN-acetyl β-End 1–31 was not observed. […] Effects of PPCC, β-End 1–31 and ^αN-acetyl β-End 1–31 on seizures induced by NMDA in wild-type and σ1R^−/− mice. The mice received icv 1 nmol of the NMDAR agonist NMDA 30 min after the other drugs (3 nmol) and were then immediately evaluated. […] ANOVA followed by the Holm–Sidak multiple comparisons test, p < 0.05, 1-β > 0.80.
Focal cerebral ischemia was induced via pMCAO, as described previously. Briefly, mice were anesthetized and a vertical skin incision was made between the left eye and ear under a dissection microscope. After drilling a small hole in the cranium at the level of the distal portion of the middle cerebral artery, the artery was occluded by cauterization. Flow obstruction was visually verified. Animals showing subdural haemorrhages or signs of incorrect surgery were immediately excluded from the study (<5% in each group). The mice were returned to their cages after surgery, kept at room temperature, and allowed food and water ad libitum. Strong lesion reproducibility was observed. […] The investigator performing the pMCAO surgery was blinded to the treatment group. To determine the infarct size 48 h after surgery, animals were euthanized and their brains were removed, after which six 1 mm thick coronal brain slices (Brain Matrix, WPI, UK) were obtained. The sections were stained with 2,3,5-triphenyltetrazolium chloride (1% TTC, Merck-Sigma). Samples were taken from each side of all brain sections with a digital camera (Nikon Coolpix 990, Tokyo, Japan), and the extent of unstained infarct area (expressed in mm^2) was integrated from the total area as an orthogonal projection.

[2] = test system: NMDAR overactivation seizures in CD1 mice; test: NMDA-induced seizures (1 nmol NMDA icv); assay type: in vivo, mouse; settings: for effect on behavioral signs evoked by NMDA: 8 mice
Description: as §1
Seizures were induced by injection of NMDA (1 nmol/mouse icv, in a volume of 4 μL sterile saline) as described by others. […] The seizure activity consisted of a mild myoclonic phase (immobility, mouth and facial movements, tail extension, circling), rearing (violent movements of the whole body, rearing), wild running (episodes of running with explosive jumps), clonic convulsions (characterized by rigidity of the whole body, including limb flexion/extension), followed by continuous/repetitive seizure activity (tonic seizures) and, in approximately 15–20% of the animals, death. The episode typically began a few seconds after injection and evolved to its maximal intensity in less than 1 min.

[3] = 3 nmol icv 30 min before 1 nmol NMDA icv, wild-type mice

T1 sequence (O55242 whole entry): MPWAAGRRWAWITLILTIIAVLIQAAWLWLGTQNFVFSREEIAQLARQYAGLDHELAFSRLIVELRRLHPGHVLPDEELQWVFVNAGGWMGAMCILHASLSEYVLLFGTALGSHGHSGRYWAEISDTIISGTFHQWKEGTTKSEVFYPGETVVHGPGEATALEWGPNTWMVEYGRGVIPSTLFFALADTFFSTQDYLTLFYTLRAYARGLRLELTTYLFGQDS

## KKGE [β-End 28–31, C-terminal tetrapeptide of β-End 1–31]
σ1R oligomers
  effect on in vitro made σ1R oligomers: released σ1Rs from these oligomers

## ^αN-acetyl β-End 1–31: β-End 1–31 acetylated at N terminal Y1, α position
[1]; 3 nmol icv 60 min postsurgery, 48 h after pMCAO, wild-type mice, mean ± SD, 5 to 8 mice, SD
  infarct volume: 1.2 ± 0.9 % of the total brain volume
[1]; 3 nmol icv 60 min postsurgery, 48 h after pMCAO, wild-type mice, untreated infarct 5.4 ± 1.2% of total brain volume
  reduction in the infarct size: ~80%
[1]; σ1R−/− mice, 3 nmol icv
  protective effect on pMCAO-produced ischemia in σ1R−/− mice: did not exhibit protective effects
[2]; [3]
  effect on clonic convulsions and tonic seizures: only a tendency to diminish clonic convulsions and tonic seizures
  effect on behavioral signs evoked by NMDA: partially protected the mice from hypermobility and convulsive rearing
[2]; σ1R−/− mice, 3 nmol icv
  anticonvulsant effects in σ1R−/− mice: absent
σ1R oligomers
  effect on in vitro made σ1R oligomers: released σ1Rs from these oligomers

## Cl.O=C(OCCN1CCOCC1)C1(c2ccccc2)CCCCC1 [PRE084, 2-(4-morpholinethyl)-1-phenylcyclohexanecarboxylate hydrochloride, reference compound]
[1]; given with ^αN-acetyl β-End 1–31 (3 nmol icv), wild-type mice
  effect on the neuroprotection provided by ^αN-acetyl β-End 1–31: prevented the neuroprotection
[1]; icv 60 min postsurgery (3 nmol), 48 h after pMCAO, wild-type mice
  effect on infarct volume, given alone: did not alter the extent of infarct volume

## COC(=O)[C@]1(c2ccc(C)cc2)C[C@@H]1CN1CCC(O)(c2ccccc2)CC1 [PPCC, (1R,2S/1S,2R)-2-[4-hydroxy-4-phenylpiperidin-1-yl)methyl]-1-(4-methylphenyl) cyclopropanecarboxylate, reference compound]
[2]; [3]
  effect on behavioral signs evoked by NMDA: did not significantly alter the behavioral effects
[2]; 3 nmol icv with ^αN-acetyl β-End 1–31, wild-type mice
  effect on the anticonvulsant action of ^αN-acetyl β-End 1–31: prevented ^αN-acetyl β-End 1–31 from alleviating these signs
